In paper PMC11243058, “Identification of Novel Isatin Derivative Bearing a Nitrofuran Moiety as Potent Multi-Isoform Aldehyde Dehydrogenase Inhibitor” (Molecules, 2024):
Where two headings read alike, the source gives them in different places.

How the values were obtained:
[1] = Cell viability assay (MTS), statements over the cell line panel; format: cell-based, human; conditions: human; range or statement over all tested cell lines, 48 h MTS; read-out: IC50 / cytotoxicity against the tested cell lines
Protocol: (§1) Five thousand cells/well were plated in 96-well plates in growth media and left for attachment for 24 h. The cells were then treated with the respective compounds using varying concentrations for 48 h. At the end of the treatment duration, a solution of MTS [3-(4,5-dimethylthiazol-2-yl)-5-(3-carboxymethoxyphenyl)-2-(4-sulfophenyl)-2H-tetrazolium] and an electron coupling reagent, PES (phenazine ethosulfate) (Promega, Madison, WI, USA) was added to the cells. Then, 15 μL of MTS reagent was added to each well, and the absorbance was assessed at 490 nm with a microplate reader (Dynex Technologies, MRX Revelation; Chantilly, VA, USA) after 1 h incubation with MTS. The data were recorded, and the IC50 value was calculated using non-linear curve regression analysis (Graph pad V8.0, CA, USA).

MiaPaCa-2 = assay: Cell viability assay (MTS), MiaPaCa-2; format: cell-based, human; conditions: Homo sapiens, MIA PaCa-2, pancreatic cancer cells, 48 h, mean ± SD
Protocol: as §1

SKOV-3 = assay: Cell viability assay (MTS), SKOV-3; format: cell-based, human; conditions: Homo sapiens, SK-OV-3, ovarian cancer cells, 48 h, mean ± SD
Protocol: as §1

FHC = assay: Cell viability assay (MTS), FHC; format: cell-based; conditions: FHC, normal fetal human cells, 48 h, mean ± SD
Protocol: as §1

HEK-293 = assay: Cell viability assay (MTS), HEK-293; format: cell-based; conditions: HEK293, human embryonic kidney cells, 48 h, mean ± SD
Protocol: as §1

HCT-116 = assay: Cell viability assay (MTS), HCT-116; format: cell-based, human; conditions: Homo sapiens, HCT-116, colon cancer cells, 48 h, mean ± SD
Protocol: as §1

ALDH3A1 = target: T1, ALDH3A1 (Homo sapiens, UniProt P30838); assay: ALDH isoform-specific enzyme inhibition assay, ALDH3A1; format: biochemical; conditions: 500 nM, Acetaldehyde (Substrate)
T1 construct: purchased R&D systems
T1 sequence (P30838 1-453): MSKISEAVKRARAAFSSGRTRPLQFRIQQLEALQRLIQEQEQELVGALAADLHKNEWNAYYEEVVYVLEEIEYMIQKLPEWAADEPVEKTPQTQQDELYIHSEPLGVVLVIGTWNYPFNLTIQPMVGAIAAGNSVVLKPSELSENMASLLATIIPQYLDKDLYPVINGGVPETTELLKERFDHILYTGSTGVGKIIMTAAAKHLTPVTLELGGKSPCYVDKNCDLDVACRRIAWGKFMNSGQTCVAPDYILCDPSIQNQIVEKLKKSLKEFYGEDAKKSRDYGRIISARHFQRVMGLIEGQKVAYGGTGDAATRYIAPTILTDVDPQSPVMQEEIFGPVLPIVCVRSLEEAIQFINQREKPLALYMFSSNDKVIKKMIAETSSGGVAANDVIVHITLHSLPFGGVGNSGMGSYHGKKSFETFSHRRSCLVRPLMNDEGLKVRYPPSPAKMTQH
Protocol: (§2) ALDH1A1, ALDH3A1, and ALDH1A3 enzyme inhibition assays were performed as reported previously. Briefly, 500 ng/100 uL of ALDH1A1, ALDH3A1, and ALDH1A3 were treated with 500 nM concentration of the tested compounds and incubated for 15 min followed by the addition of reaction mixture (substrate + Substrate mixture). […] The absorbance was measured at 450 nm. [Absorbance Control–Absorbance treated/Absorbance Control]100 was used to compute the percentage of inhibition.

ALDH1A1 = target: T2, ALDH1A1 (Homo sapiens, UniProt P00352); assay: ALDH isoform-specific enzyme inhibition assay, ALDH1A1; format: biochemical; conditions: 500 nM, Acetaldehyde (Substrate)
T2 construct: purchased R&D systems
T2 sequence (P00352 1-501): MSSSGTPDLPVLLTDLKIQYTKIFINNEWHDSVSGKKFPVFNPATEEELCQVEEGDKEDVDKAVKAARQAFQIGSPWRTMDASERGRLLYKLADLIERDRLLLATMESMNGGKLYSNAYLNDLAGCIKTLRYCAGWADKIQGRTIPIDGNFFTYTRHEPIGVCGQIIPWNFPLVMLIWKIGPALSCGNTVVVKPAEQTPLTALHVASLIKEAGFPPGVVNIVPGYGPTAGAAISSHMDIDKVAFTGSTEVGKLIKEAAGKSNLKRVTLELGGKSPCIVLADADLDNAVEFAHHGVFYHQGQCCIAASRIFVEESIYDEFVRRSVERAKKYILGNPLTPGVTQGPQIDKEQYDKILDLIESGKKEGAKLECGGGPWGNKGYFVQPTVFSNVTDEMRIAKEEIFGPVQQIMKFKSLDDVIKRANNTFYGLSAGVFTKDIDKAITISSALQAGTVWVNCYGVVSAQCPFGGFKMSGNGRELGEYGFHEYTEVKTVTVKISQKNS
Protocol: as §2

UACC 903 cells = assay: ALDEFLUOR assay; format: cell-based, human; conditions: UACC 903 melanoma cells, 1 µM, 24 h
Protocol: Aldehyde dehydrogenase (ALDH) activity within human melanoma cells was assessed by utilizing the ALDEFLUOR Kit from […] Technologies. […] Post-treatment, cells were washed with PBS, and the ALDEFLUOR assay was performed following the manufacturer’s protocol, employing DEAB as a negative control. ALDH percentages were determined using a BD LSRFortessa flow cytometer (San Jose, CA, USA).

[2] = test system: SKOV-3, MiaPaCa-2, HCT-116, HEK-293, and FHC cell lines; assay: Cell viability assay (MTS), statements over the cell line panel; format: cell-based, human; conditions: for IC50: Homo sapiens
Protocol: as §1

HCT-116 cells [3] = assay: Apoptosis assay, Annexin V/7-AAD; format: cell-based, human; conditions: HCT-116, 3 µM, 48 h, relative to KS100
Protocol: (§3) The apoptosis assays were carried out following the manufacturer’s instructions using the Muse Caspase-3/7 assay kit and Annexin V/7-AAD kit (Luminex Corp., TX, US). In a 6-well plate, the cells were seeded at a density of 1X105 cells/well. The cells were treated with 3 µM of the compounds following a 24 h incubation period. The cells were cultured for 48 h (Annexin V/7-AAD) as opposed to 24 h (Caspase-3/7 test). Cell Dissociation buffer, an enzyme-free solution, was used to harvest the cells at the end of the treatment period. The samples were then given the appropriate dye treatments following the manufacturer’s instructions.

HCT-116 cells [4] = assay: Apoptosis assay, Muse Caspase-3/7 7-AAD; format: cell-based, human; conditions: HCT-116, 3 µM, 24 h, relative to KS100
Protocol: as §3

HCT-116 cells [5] = assay: ROS generation (Muse Oxidative Stress Kit); format: cell-based, human; conditions: HCT-116, 3 µM, 24 h, relative to KS100
Protocol: The Muse® Oxidative Stress Kit (Luminex Corp., Austin, TX, USA) was used to assess the generation of ROS in the HCT-116 cells after the treatment with the compounds. In a 6-well plate, the cells were seeded at a density of 1 × 10^5 cells/well. After 24 h incubation, the cells were treated with the respective compounds with or without 5 mM of N-acetylcysteine (NAC) in the serum-enriched medium for 24 h. At the end of the treatment duration, the cells were harvested, and 10 μL of cells in suspension was added into each tube. Furthermore, 190 μL of Muse Oxidative Stress Reagent working solution was added to each tube. The samples were mixed thoroughly by pipetting up and down or vortexing at medium speed for 3 to 5 s. The samples were incubated for 30 min at 37 °C and analyzed using Muse Cell Analyzer.

γH2AX in HCT-116 cells = assay: Western blot for γH2AX; format: cell-based, human; conditions: HCT-116, 3 µM, 12 h
Protocol: Western blotting was performed as described previously. The antibodies used were procured from Cell Signaling Technologies. […] The protein was transferred to a 0.45 µm pore membrane (Immobilon®-P PVDF Membrane, EMD Millipore, USA). The membranes were further treated with the respective primary and secondary antibodies. The Western blot images are representative of three independent experiments.

HNSCC xenograft = conditions: injected intratumorally ref 29; cited from earlier work

Structure (SMILES)	IC50 at 48 h [1] [µM]	IC50 (MiaPaCa-2) [µM]	IC50 (SKOV-3) [µM]	IC50 (FHC) [µM]	IC50 (HEK-293) [µM]	IC50 (HCT-116) [µM]	melting point [°C]	inhibition at 0.5 µM (ALDH3A1) [%]	inhibition at 0.5 µM (ALDH1A1) [%]	inhibition of overall ALDH activity (ALDEFLUOR) (UACC 903 cells)	IC50 ([2]; HEK293, FHC and HEK-293, 48 h MTS, read-out: IC50 in normal and embryonic kidney cells) [µM]	IC50 ([2]; Pancreatic cancer cell, ovarian, colon, and pancreatic cancer cells, 48 h MTS, read-out: IC50 in cancer cell lines) [µM]	greater effectiveness than KS100 in targeting cancer cells ([2]; from MTS IC50 values) [times]	more apoptotic cell population than KS100, Annexin V/7-AAD (HCT-116 cells [3])	more apoptotic cell population than KS100, caspase-3/7 7-AAD (HCT-116 cells [4])	more ROS than KS100 (HCT-116 cells [5]) [%]	γH2AX protein levels (γH2AX in HCT-116 cells)	IC50 / cytotoxicity against the tested cell lines ([2]; range or statement over all tested cell lines, 48 h MTS)	reduction of HNSCC xenograft development (HNSCC xenograft) [%]	IC50 ([2]; Pancreatic cancer cell, 48 h, read-out: IC50 in cancer cell lines) [µM]
COC(=O)/C=C/c1ccc(CN2C(=O)C(=O)c3cc(Br)cc(Br)c32)cc1 [Compound 2, Methyl (E)-3-(4-((5,7-dibromo-2,3-dioxoindolin-1-yl)methyl)phenyl)acrylate]	> 20	22.3 ± 5.1	21.8 ± 2.4	22.9 ± 3.3	24.1 ± 6.8	19.6 ± 3.3														
O=C(OCc1ccc(CN2C(=O)C(=O)c3cc(Br)cc(Br)c32)cc1)c1ccco1 [Compound 4, 4-((5,7-Dibromo-2,3-dioxoindolin-1-yl)methyl)benzyl furan-2-carboxylate]		7.1 ± 0.8	7.2 ± 1.3	6.7 ± 1.9	5.3 ± 1.4	6.1 ± 1.2	132 to 134	22.82 ± 0.05	28.26 ± 0.01											
O=C(OCc1ccc(CN2C(=O)C(=O)c3cc(Br)cc(Br)c32)cc1)c1ccc([N+](=O)[O-])o1 [Compound 3, 4-((5,7-Dibromo-2,3-dioxoindolin-1-yl)methyl)benzyl 5-nitrofuran-2-carboxylate]	2.1 to 6.8	3.8 ± 0.4	2.2 ± 0.2	7.1 ± 0.8	8.7 ± 1.1	2.1 ± 0.1		51.87 ± 0.05	51.32 ± 0.01	~ 2.5 fold	7.1 to 8.7	2.1 to 3.8	0.5 to 2	~ 13%	~ 12.8%	34.7	increased γH2AX protein levels			
Br.C=CCNC(=N)SCc1ccc(CN2C(=O)C(=O)c3cc(Br)cc(Br)c32)cc1 [Compound 1, 4-((5,7-Dibromo-2,3-dioxoindolin-1-yl)methyl)benzyl allylcarbamimidothioate hydrobromide]	2.1 to 6.8	2.4 ± 1.1	4.8 ± 0.2	2.9 ± 0.3	4.1 ± 0.8	4.7 ± 1.1	118 to 120	30.59 ± 0.02	35.37 ± 0.01											
O=Cc1ccc(CN2C(=O)C(=O)c3cc(Br)cc(Br)c32)cc1 [Compound 5, 4-((5,7-Dibromo-2,3-dioxoindolin-1-yl)methyl)benzaldehyde]		5.4 ± 0.9	8.2 ± 1.1	12.9 ± 3.3	7.5 ± 1.8	8.8 ± 2.3	205 to 207	39.58 ± 0.05	24.82 ± 0.01									less cytotoxic than KS100		
Br.N=C(N)SCc1ccc(Cn2nc(Br)c3cc(C(F)(F)F)ccc32)cc1 [Compound 16, 4-((3-Bromo-5-(trifluoromethyl)-1H-indazol-1-yl)methyl)benzyl carbamimidothioate hydrobromide]	2.1 to 6.8	6.8 ± 1.4	4 ± 1.3	7.1 ± 1.1	5.7 ± 1.3	4.9 ± 1.1	213 to 215	-9.33 ± 0.04	9.46 ± 0.01											
CC(C)CCn1c(CN2CCN(C(=O)C3CC3)CC2)nc2c1c(=O)n(C)c(=O)n2C [NCT-501]																			78	
Br.N=C(N)SCc1ccc(Cn2nc(Br)c3cccc(C(F)(F)F)c32)cc1 [Compound 17, 4-((3-Bromo-7-(trifluoromethyl)-1H-indazol-1-yl)methyl)benzyl carbamimidothioate hydrobromide]		> 50	> 50	> 50	> 50	> 50	235 to 237	-25.33 ± 0.05	10.99 ± 0.0015											> 50
